# Experimental data as given in patent publication US20230085307A1, “PYRIDAZINONE COMPOUND AND HERBICIDE” (NISSAN CHEMICAL CORPORATION, priority 2019, published 2023).
# Experiments:
# oval-leafed pondweed = assay: Test Example 1: herbicidal activity, application before weed generation under submerged conditions (Table 16, symbol C); assay type: in vivo, oval-leafed pondweed (Monochoria vaginalis); settings: 320 g/ha applied herbicide
# Outline: (§1)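 Emulsion formulation, water-diluted to set dose, was put onto the flooded surface (4 cm depth, alluvial soil) the same day weeds were sown and 2.5-leaf rice transplanted. After 3 weeks at 25-30 °C under glass, each species was rated 0 (≤5% kill) to 5 (≥90% kill).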
# lambsquarters [1] = assay: Test Example 5: herbicidal effect by foliage application, plastic box (Table 20, symbol O); assay type: in vivo, lambsquarters (Chenopodium album); settings: foliage application, 320 g/ha, 3 weeks after application
# Outline: (§2)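 Foliar spray test: emulsion formulation diluted in water to a set application rate, sprayed onto 14-day-old plants raised in diluvial soil at 25° C to 30° C under glass. Both herbicidal effect and crop effect rated visually three weeks later.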
# southern crabgrass [2] = assay: Test Example 4: herbicidal effect by soil treatment (Table 19, symbol F); assay type: in vivo, southern crabgrass (Digitaria ciliaris); settings: AAH 320 g/ha
# Outline: (§3)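 Herbicidal effect was rated 3 weeks after treatment, using the scoring criteria of an earlier test. The compound, formulated as an emulsion and diluted in water to a set herbicide amount, had been sprayed uniformly on soil over freshly sown seeds. Growth took place in a greenhouse at 25° C. to 30° C.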
# redroot pigweed = assay: Test Example 4: herbicidal effect by soil treatment (Table 19, symbol N); assay type: in vivo, redroot pigweed (Amaranthus retroflexus); settings: AAH 320 g/ha
# Outline: as §3
# Italian ryegrass [3] = assay: Test Example 5: herbicidal effect by foliage application, plastic box (Table 20, symbol K); assay type: in vivo, Italian ryegrass (Lolium multiflorum); settings: foliage application, 320 g/ha, 3 weeks after application
# Outline: as §2
# barnyard grass [4] = assay: Test Example 4: herbicidal effect by soil treatment (Table 19, symbol H); assay type: in vivo, barnyard grass (Echinochloa crus-galli); settings: AAH 320 g/ha
# Outline: as §3
# persian speedwell [5] = assay: Test Example 4: herbicidal effect by soil treatment (Table 19, symbol R); assay type: in vivo, Persian speedwell (Veronica persica); settings: AAH 320 g/ha
# Outline: as §3
# Italian ryegrass [6] = assay: Test Example 4: herbicidal effect by soil treatment (Table 19, symbol K); assay type: in vivo, Italian ryegrass (Lolium multiflorum); settings: AAH 320 g/ha
# Outline: as §3
# velvetleaf [7] = assay: Test Example 5: herbicidal effect by foliage application, plastic box (Table 20, symbol M); assay type: in vivo, velvetleaf (Abutilon theophrasti); settings: foliage application, 320 g/ha, 3 weeks after application
# Outline: as §2
# velvetleaf [8] = assay: Test Example 4: herbicidal effect by soil treatment (Table 19, symbol M); assay type: in vivo, velvetleaf (Abutilon theophrasti); settings: AAH 320 g/ha
# Outline: as §3
# southern crabgrass [9] = assay: Test Example 5: herbicidal effect by foliage application, plastic box (Table 20, symbol F); assay type: in vivo, southern crabgrass (Digitaria ciliaris); settings: foliage application, 320 g/ha, 3 weeks after application
# Outline: as §2
# windgrass [10] = assay: Test Example 4: herbicidal effect by soil treatment (Table 19, symbol L); assay type: in vivo, windgrass (Apera spica-venti); settings: AAH 320 g/ha
# Outline: as §3
# persian speedwell [11] = assay: Test Example 5: herbicidal effect by foliage application, plastic box (Table 20, symbol R); assay type: in vivo, Persian speedwell (Veronica persica); settings: foliage application, 320 g/ha, 3 weeks after application
# Outline: as §2
# barnyard grass [12] = assay: Test Example 3: herbicidal effect by foliage application, Wagner pot (Table 18, symbol H); assay type: in vivo, barnyard grass (Echinochloa crus-galli); settings: 320 g/ha
# Outline: (§4)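 Plants were sown in alluvial soil held under 0.1–0.5 cm standing water and grown 14 days in a greenhouse at 25–30 °C. An emulsifiable formulation, water-diluted to the set dose, was then sprayed onto the foliage, and effects were scored three weeks later using previously defined criteria.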
# Chinese sprangletop = assay: Test Example 3: herbicidal effect by foliage application, Wagner pot (Table 18, symbol D); assay type: in vivo, chinese sprangletop (Leptochloa chinensis); settings: 320 g/ha
# Outline: as §4
# late watergrass = assay: Test Example 1: herbicidal activity, application before weed generation under submerged conditions (Table 16, symbol A); assay type: in vivo, late watergrass (Echinochloa oryzicola); settings: 320 g/ha applied herbicide
# Outline: as §1
# green foxtail [13] = assay: Test Example 5: herbicidal effect by foliage application, plastic box (Table 20, symbol G); assay type: in vivo, green foxtail (Setaria viridis); settings: foliage application, 320 g/ha, 3 weeks after application
# Outline: as §2
# Japanese bulrush = assay: Test Example 1: herbicidal activity, application before weed generation under submerged conditions (Table 16, symbol B); assay type: in vivo, Japanese bulrush (Schoenoplectus juncoides); settings: 320 g/ha applied herbicide
# Outline: as §1
# rice flat sedge = assay: Test Example 3: herbicidal effect by foliage application, Wagner pot (Table 18, symbol E); assay type: in vivo, rice flat sedge (Cyperus iria); settings: 320 g/ha
# Outline: as §4
# barnyard grass [14] = assay: Test Example 5: herbicidal effect by foliage application, plastic box (Table 20, symbol H); assay type: in vivo, barnyard grass (Echinochloa crus-galli); settings: foliage application, 320 g/ha, 3 weeks after application
# Outline: as §2
# blackgrass [15] = assay: Test Example 4: herbicidal effect by soil treatment (Table 19, symbol J); assay type: in vivo, blackgrass (Alopecurus myosuroides); settings: AAH 320 g/ha
# Outline: as §3
# windgrass [16] = assay: Test Example 5: herbicidal effect by foliage application, plastic box (Table 20, symbol L); assay type: in vivo, windgrass (Apera spica-venti); settings: foliage application, 320 g/ha, 3 weeks after application
# Outline: as §2
# green foxtail [17] = assay: Test Example 4: herbicidal effect by soil treatment (Table 19, symbol G); assay type: in vivo, green foxtail (Setaria viridis); settings: AAH 320 g/ha
# Outline: as §3
# wild oat [18] = assay: Test Example 5: herbicidal effect by foliage application, plastic box (Table 20, symbol I); assay type: in vivo, wild oat (Avena fatua); settings: foliage application, 320 g/ha, 3 weeks after application
# Outline: as §2
# wild oat [19] = assay: Test Example 4: herbicidal effect by soil treatment (Table 19, symbol I); assay type: in vivo, wild oat (Avena fatua); settings: AAH 320 g/ha
# Outline: as §3
# blackgrass [20] = assay: Test Example 5: herbicidal effect by foliage application, plastic box (Table 20, symbol J); assay type: in vivo, blackgrass (Alopecurus myosuroides); settings: foliage application, 320 g/ha, 3 weeks after application
# Outline: as §2
# lambsquarters [21] = assay: Test Example 4: herbicidal effect by soil treatment (Table 19, symbol O); assay type: in vivo, lambsquarters (Chenopodium album); settings: AAH 320 g/ha
# Outline: as §3
smiles,measurement,setting,value
C=CCSCc1ccc(-c2sc3ccccc3c2-c2c(O)c(C)nn(C)c2=O)cc1 [1-245],Herbicidal effect on C: oval-leafed pondweed (grade 0-5),oval-leafed pondweed,0 (Herbicidal rate of 5% or less (almost no effect))
same,effect on lambsquarters (O),lambsquarters [1],5 (Herbicidal rate of 90% or more (almost completely withered))
same,"F: southern crabgrass, herbicidal effect rating",southern crabgrass [2],0 (Herbicidal rate of 5% or less (almost no effect))
same,"N: redroot pigweed, herbicidal effect rating",redroot pigweed,3 (Herbicidal rate of 40% or more and less than 70%)
same,effect on Italian ryegrass (K),Italian ryegrass [3],4 (Herbicidal rate of 70% or more and less than 90%)
same,"H: barnyard grass, herbicidal effect rating",barnyard grass [4],0 (Herbicidal rate of 5% or less (almost no effect))
same,"R: persian speedwell, herbicidal effect rating",persian speedwell [5],4 (Herbicidal rate of 70% or more and less than 90%)
same,"K: Italian ryegrass, herbicidal effect rating",Italian ryegrass [6],2 (Herbicidal rate of 20% or more and less than 40%)
same,effect on velvetleaf (M),velvetleaf [7],5 (Herbicidal rate of 90% or more (almost completely withered))
same,"M: velvetleaf, herbicidal effect rating",velvetleaf [8],0 (Herbicidal rate of 5% or less (almost no effect))
same,effect on southern crabgrass (F),southern crabgrass [9],3 (Herbicidal rate of 40% or more and less than 70%)
same,"L: windgrass, herbicidal effect rating",windgrass [10],0 (Herbicidal rate of 5% or less (almost no effect))
same,effect on persian speedwell (R),persian speedwell [11],5 (Herbicidal rate of 90% or more (almost completely withered))
same,"herbicidal effect on H (barnyard grass), rating 0-5",barnyard grass [12],5 (Herbicidal rate of 90% or more (almost completely withered))
same,"herbicidal effect on D (Chinese sprangletop), rating 0-5",Chinese sprangletop,3 (Herbicidal rate of 40% or more and less than 70%)
same,Herbicidal effect on A: late watergrass (grade 0-5),late watergrass,3 (Herbicidal rate of 40% or more and less than 70%)
same,effect on green foxtail (G),green foxtail [13],4 (Herbicidal rate of 70% or more and less than 90%)
same,Herbicidal effect on B: Japanese bulrush (grade 0-5),Japanese bulrush,3 (Herbicidal rate of 40% or more and less than 70%)
same,"herbicidal effect on E (rice flat sedge), rating 0-5",rice flat sedge,3 (Herbicidal rate of 40% or more and less than 70%)
same,effect on barnyard grass (H),barnyard grass [14],5 (Herbicidal rate of 90% or more (almost completely withered))
same,"J: blackgrass, herbicidal effect rating",blackgrass [15],0 (Herbicidal rate of 5% or less (almost no effect))
same,effect on windgrass (L),windgrass [16],4 (Herbicidal rate of 70% or more and less than 90%)
same,"G: green foxtail, herbicidal effect rating",green foxtail [17],0 (Herbicidal rate of 5% or less (almost no effect))
same,effect on wild oat (I),wild oat [18],1 (Herbicidal rate of 5% or more and less than 20%)
same,"I: wild oat, herbicidal effect rating",wild oat [19],0 (Herbicidal rate of 5% or less (almost no effect))
same,effect on blackgrass (J),blackgrass [20],3 (Herbicidal rate of 40% or more and less than 70%)
same,"O: lambsquarters, herbicidal effect rating",lambsquarters [21],3 (Herbicidal rate of 40% or more and less than 70%)
